# Data published in patent US20030186898A1, “8- (C-beta-D-glucopyranosyl) -7, 3', 4' -trihydroxyflavone, process of isolation thereof, pharmaceutical composition and method for the treatment of diabetes” (priority 2002, published 2003).
# System: 18 h. fasted Wistar rats
# Experiment: hypoglycaemic activity in 18 h. fasted Wistar rats
# Type: in vivo
# Description: The compound 8-(C-β-D-glucopyranosyl)-7,3′,4′-trihydroxyflavone has been evaluated for hypoglycaemic activity in 18 h. fasted Wistar rats. […] The mean fall recorded was 24 mg/100 ml. blood, from initial mean of 92 to mean of 68 mg/100 ml. blood.
compound,measurement,setting,value
"O=c1cc(-c2ccc(O)c(O)c2)oc2c([C@@H]3O[C@H](CO)[C@@H](O)[C@H](O)[C@H]3O)c(O)ccc12 [8-(C-β-D-glucopyranosyl)-7,3′,4′-trihydroxyflavone]",hypoglycaemic effect,10 mg/kg p. o.,hypoglycaemic effect was recorded in all the treated rats
same,mean (blood sugar) after treatment,after 10 mg/kg p. o.,68 mg/100 ml. blood
same,initial mean (blood sugar),before treatment with 10 mg/kg p. o.,92 mg/100 ml. blood
same,mean fall (blood sugar),compound at 10 mg/kg p. o.,24 mg/100 ml. blood
